ChEMBL document CHEMBL5518182, “Discovery and development of BI 1265162, an ENaC inhibitor for the treatment of cystic fibrosis” (Eur J Med Chem, 2024)
The source made the active and inactive calls. The calls are words filed in the database; no cut-off is given here.

Assays:
[1] = Inhibition of ENaC in mouse M1 cells upto 10 uM by chamber assay; type: cell-based; conditions: m1 cell
M1 cell = assay: Inhibition of ENaC-mediated water resorption in mouse M1 cells at 3 uM by radiometric dilution assay relative to control; type: cell-based
[2] = Permeability across basal to apical side in human Calu-3 cells at 0.1 to 300 uM measured upto 2 hrs by HPLC-MS/MS analysis; type: ADME, cell-based; conditions: dose 0.1-300 µM, read-out: permeability
[3] = Solubility of compound at pH 5; type: physicochemical; conditions: buffer
Lung [4] = assay: Inhibition of lung water resorption in Wistar rat at 3 ug/kg, IT(Intratracheal) incubated for 3 hrs relative to control; type: functional
Lung [5] = assay: Inhibition of lung water resorption in Wistar rat at 30 ug/kg, IT(Intratracheal) incubated for 3 hrs relative to control; type: functional
[6] = biological target: Acetylcholinesterase (Homo sapiens) (UniProt P22303); assay: Inhibition of AChE (unknown origin) at 10 uM relative to control
Lung [7] = assay: Inhibition of lung water resorption in Wistar rat at 0.3 ug/kg, IT(Intratracheal) incubated for 3 hrs relative to control; type: functional
Rattus norvegicus [8] = species: Rattus norvegicus; assay: Upregulation of serum potassium level in Han Wistar rat; type: functional, organism-based
Rattus norvegicus [9] = assay: Acute effect on Han Wistar rat model of lung fluid absorption administered intratracheally measured after 3 hrs; type: functional; conditions: route it(Intratracheal)
Rattus norvegicus [10] = assay: Upregulation of serum aldosterone level in Han Wistar rat model of lung fluid absorption at 3 ug/kg, IT(Intratracheal) measured after 3 hrs relative to control; type: functional; conditions: dose 3 µg/kg
Rattus norvegicus [11] = assay: Effect on Han Wistar rat model of lung fluid absorption at ED70 administered intratracheally measured after 20 hrs; type: functional; conditions: route it(Intratracheal)

Chain of Acetylcholinesterase (Homo sapiens) (P22303 whole entry): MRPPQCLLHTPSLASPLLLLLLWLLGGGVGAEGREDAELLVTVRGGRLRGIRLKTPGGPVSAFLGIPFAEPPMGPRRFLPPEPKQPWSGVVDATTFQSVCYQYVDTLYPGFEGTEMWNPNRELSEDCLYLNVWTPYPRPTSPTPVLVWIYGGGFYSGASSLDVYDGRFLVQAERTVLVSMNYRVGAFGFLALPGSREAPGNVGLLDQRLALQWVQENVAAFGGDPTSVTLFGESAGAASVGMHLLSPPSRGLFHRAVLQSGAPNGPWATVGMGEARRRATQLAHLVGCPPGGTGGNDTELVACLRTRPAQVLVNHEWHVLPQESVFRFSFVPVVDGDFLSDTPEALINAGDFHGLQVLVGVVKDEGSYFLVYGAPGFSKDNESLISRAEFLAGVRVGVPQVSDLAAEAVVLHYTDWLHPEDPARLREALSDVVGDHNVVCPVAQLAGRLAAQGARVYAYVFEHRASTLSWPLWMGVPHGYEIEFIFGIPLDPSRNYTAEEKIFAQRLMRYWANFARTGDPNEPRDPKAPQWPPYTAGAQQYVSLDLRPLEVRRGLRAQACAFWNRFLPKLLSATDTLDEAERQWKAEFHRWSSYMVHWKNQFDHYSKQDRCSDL

With `CCOP(=O)([O-])CCCOc1ccc2c(c1)[n+](CC)c(CNC(=O)c1nc(Cl)c(N)nc1N)n2CCCC#N` the IC50 [1] was 19 nM, the inhibition (M1 cell) was 83% and the Papp B→A at 2 h, up to 300 µM [2] was 0.22 ×10⁻⁶ cm/s. The solubility [3] was over 5%, the inhibition in vivo at 0.003 mg/kg (Lung [4]) was 6% and the inhibition in vivo at 0.03 mg/kg (Lung [5]) was 16%.

Work on `CCn1c(CNC(=O)c2nc(Cl)cnc2N)[n+](CCO)c2cc(OCC(=O)N3CCN(C(C)=O)CC3)ccc21` yielded an IC50 [1] of 18 nM, an inhibition (M1 cell) of 76% and a Papp B→A at 2 h, up to 300 µM [2] of 0.7 ×10⁻⁶ cm/s. It also gave a solubility [3] of over 5%, an inhibition in vivo at 0.003 mg/kg (Lung [4]) of 75% and an inhibition [6] of 75%.

In the case of `CCn1c(CNC(=O)c2nc(Cl)cnc2N)[n+](CC)c2cc(OCC(=O)O)ccc21`, the IC50 [1] is reported as 16 nM, the inhibition (M1 cell) is reported as 70% and the Papp B→A at 2 h, up to 300 µM [2] is reported as 0.22 ×10⁻⁶ cm/s.

`CCn1c(CNC(=O)c2nc(Cl)cnc2N)[n+](CC)c2ccccc21` gave an IC50 [1] of 0.7 nM.

Molecule `CC[n+]1c(CNC(=O)c2nc(Cl)c(N)nc2N)n(CC2CCOCC2)c2ccc(OCC(=O)N(Cc3nc(C)ccc3O)C[C@H](C)O)cc21` has an IC50 [1] of 2.5 nM, an inhibition (M1 cell) of 63% and a Papp B→A at 2 h, up to 300 µM [2] of 0.2 ×10⁻⁶ cm/s. The solubility [3] was under 2%.

With `CC[n+]1c(CNC(=O)c2nc(Cl)c(N)nc2N)n(CC(=O)O)c2ccc(OC)cc21` the IC50 [1] was 6.5 nM.

For `CCn1c(CNC(=O)c2nc(Cl)c(NC)nc2N)[n+](CC)c2ccccc21`, the IC50 [1] was 305 nM.

For `CCn1c(CNC(=O)c2nc(Cl)cnc2N)[n+](CC)c2cc(C(=O)OC)ccc21`, the IC50 [1] was 3 nM.

In the case of `CCn1c(CNC(=O)c2nc(Cl)cnc2N)[n+](CC)c2cc(OCC(=O)NCCOCP(C)(C)=O)ccc21`, the IC50 [1] is reported as 3.4 nM, the inhibition (M1 cell) is reported as 72% and the inhibition in vivo at 0.003 mg/kg (Lung [4]) is reported as 31%. It also gave an inhibition in vivo at 0.03 mg/kg (Lung [5]) of 30%, an inhibition [6] of 29% and an inhibition in vivo at 0.0003 mg/kg (Lung [7]) of 30%. For the same molecule, the Activity (Rattus norvegicus [8]) was “inactive”, the ED50 (Rattus norvegicus [9]) was 0.09 µg/kg and the ED70 (Rattus norvegicus [9]) was 0.18 µg/kg. The Activity (Rattus norvegicus [10]) was under 25% and the Efficacy (Rattus norvegicus [11]) was 31%.

For `Cn1c(CNC(=O)c2nc(Cl)c(N)nc2N)[n+](C)c2ccccc21`, the IC50 [1] was 19 nM.

Molecule `CC[n+]1c(CNC(=O)c2nc(Cl)c(N)nc2N)[nH]c2ccc(OC)cc21` has an IC50 [1] of 26 nM.

For `CCn1c(CNC(=O)c2nccnc2N)[n+](CC)c2ccccc21`, the IC50 [1] was 169 nM.

`CCn1c(CNC(=O)c2nc(Cl)cnc2N)[n+](CC)c2ccc(C(=O)NCCCN)cc21` showed a Papp B→A at 2 h, up to 300 µM [2] of 0.22 ×10⁻⁶ cm/s and a solubility [3] of over 2%.

Molecule `CCn1c(CNC(=O)c2nc(Cl)c(N)nc2N)[n+](CC)c2ccccc21` has an IC50 [1] of 0.2 nM.

In the case of `CC[n+]1c(CNC(=O)c2nc(Cl)cnc2N)n(CC2CCOCC2)c2ccc(OCC(=O)N(Cc3nc(C)ccc3O)C[C@H](C)O)cc21`, the IC50 [1] is reported as 8.6 nM, the inhibition (M1 cell) is reported as 72% and the Papp B→A at 2 h, up to 300 µM [2] is reported as 0.12 ×10⁻⁶ cm/s. The solubility [3] was over 5%, the inhibition in vivo at 0.003 mg/kg (Lung [4]) was 17% and the inhibition in vivo at 0.03 mg/kg (Lung [5]) was 33%. It also gave an inhibition [6] of 18% and an inhibition in vivo at 0.0003 mg/kg (Lung [7]) of 8%.

`CCn1c(CNC(=O)c2nc(Cl)c(N)nc2N)[n+](CC)c2cc(OCCCP(=O)([O-])OC[C@H]3CCCO3)ccc21` gave an IC50 [1] of 10 nM, an inhibition (M1 cell) of 89% and a Papp B→A at 2 h, up to 300 µM [2] of 0.06 ×10⁻⁶ cm/s. It also gave a solubility [3] of over 5%, an inhibition in vivo at 0.003 mg/kg (Lung [4]) of 14% and an inhibition in vivo at 0.03 mg/kg (Lung [5]) of 16%.

For `CCn1c(CNC(=O)c2nc(Cl)cnc2N)[n+](CC)c2cc(OCC(=O)OC)ccc21`, the IC50 [1] was 0.7 nM, the inhibition (M1 cell) was 65% and the Papp B→A at 2 h, up to 300 µM [2] was 0.25 ×10⁻⁶ cm/s.

Molecule `CC[n+]1c(CNC(=O)c2nc(Cl)cnc2N)n(CCOCCOCCO)c2ccc(OC)cc21` has an IC50 [1] of 3 nM.

For `CCn1c(CNC(=O)c2nc(Cl)cnc2N)[n+](CC)c2cc(C(=O)NCCCN)ccc21`, the IC50 [1] was 3.6 nM, the inhibition (M1 cell) was 83% and the inhibition in vivo at 0.003 mg/kg (Lung [4]) was 25%. The inhibition in vivo at 0.03 mg/kg (Lung [5]) was 24%.

`CCOP(=O)([O-])CCCOc1ccc2c(c1)[n+](CC)c(CNC(=O)c1nc(Cl)c(N)nc1N)n2CC1CCOCC1` gave an IC50 [1] of 8.3 nM, an inhibition (M1 cell) of 81% and a Papp B→A at 2 h, up to 300 µM [2] of 0.17 ×10⁻⁶ cm/s. The solubility [3] was under 5%.

In the case of `CCn1c(CNC(=O)c2nc(Cl)c(N)nc2N)[n+](CC)c2cc(OCCCP(=O)([O-])OCCOC)ccc21`, the IC50 [1] is reported as 4.2 nM, the inhibition (M1 cell) is reported as 98% and the Papp B→A at 2 h, up to 300 µM [2] is reported as 0.03 ×10⁻⁶ cm/s. For the same molecule, the solubility [3] was over 5%, the inhibition in vivo at 0.003 mg/kg (Lung [4]) was 12% and the inhibition in vivo at 0.03 mg/kg (Lung [5]) was 22%.

For `CC[n+]1c(CNC(=O)c2nc(Cl)c(N)nc2N)n(CCOCCOCCO)c2ccc(OC)cc21`, the IC50 [1] was 0.5 nM.

`CCn1c(CNC(=O)c2nc(Cl)c(N)nc2N)[n+](CCO)c2cc(OCC(=O)N3CCN(C(C)=O)CC3)ccc21` showed an IC50 [1] of 3.1 nM, an inhibition (M1 cell) of 92% and a Papp B→A at 2 h, up to 300 µM [2] of 0.31 ×10⁻⁶ cm/s. It also gave a solubility [3] of under 2%.

In the case of `CCn1c(CNC(=O)c2nc(Cl)c(N)nc2N)nc2cc(OC)ccc21`, the IC50 [1] is reported as 168 nM.

Work on `CCn1c(CNC(=O)c2nc(Cl)cnc2N)[n+](CC)c2cc(C(=O)N3CCC(N)CC3)ccc21` yielded an IC50 [1] of 5 nM, an inhibition (M1 cell) of 84% and a Papp B→A at 2 h, up to 300 µM [2] of 0.18 ×10⁻⁶ cm/s. It also gave a solubility [3] of over 2%, an inhibition in vivo at 0.003 mg/kg (Lung [4]) of 13% and an inhibition in vivo at 0.03 mg/kg (Lung [5]) of 26%.

In the case of `CC[n+]1c(CNC(=O)c2nc(Cl)c(N)nc2N)n(CC(=O)OC)c2ccc(OC)cc21`, the IC50 [1] is reported as 0.5 nM.

Work on `CCn1c(CNC(=O)c2nc(Cl)c(N)nc2N)[n+](CC)c2cc(OC)ccc21` yielded an IC50 [1] of 0.3 nM.

For `CCn1c(CNC(=O)c2cc(Cl)cnc2N)[n+](CC)c2ccccc21`, the IC50 [1] was 50 nM.

Work on `Cn1c(CNC(=O)c2nc(Cl)cnc2N)[n+](C)c2ccccc21` yielded an IC50 [1] of 81 nM.

`CCn1c(CNC(=O)c2ncc(C)nc2N)[n+](CC)c2ccccc21` gave an IC50 [1] of 1670 nM.

For `CCn1c(CNC(=O)c2nc(Cl)c(N)nc2N)[n+](CCO)c2cc(OC)ccc21`, the IC50 [1] was 0.5 nM.

With `CCn1c(CNC(=O)c2nc(Cl)c(N)nc2N)[n+](CCCO)c2cc(OC)ccc21` the IC50 [1] was 0.3 nM.

Molecule `CCn1c(CNC(=O)c2nc(Cl)cnc2N)[n+](CC)c2cc(C(=O)O)ccc21` has an IC50 [1] of 29 nM and a Papp B→A at 2 h, up to 300 µM [2] of 0.17 ×10⁻⁶ cm/s.

With `CCn1c(CNC(=O)c2nc(Br)cnc2N)[n+](CC)c2ccccc21` the IC50 [1] was 0.7 nM.

Work on `CCn1c(CNC(=O)c2nc(Cl)cnc2N)[n+](CC)c2cc(C(=O)N3CCC(N(C)C)CC3)ccc21` yielded an IC50 [1] of 4.2 nM, an inhibition (M1 cell) of 79% and a Papp B→A at 2 h, up to 300 µM [2] of under 0.13 ×10⁻⁶ cm/s. It also gave a solubility [3] of over 2%, an inhibition in vivo at 0.003 mg/kg (Lung [4]) of 25% and an inhibition in vivo at 0.03 mg/kg (Lung [5]) of 26%. It also gave an inhibition [6] of 11% and an inhibition in vivo at 0.0003 mg/kg (Lung [7]) of 19%.

`CCn1c(CNC(=O)c2cc(Cl)ccc2N)[n+](CC)c2ccccc21` showed an IC50 [1] of 19 nM.
